Tests used:
[1] = biological target: GABA-A receptor; anion channel; experiment: Binding affinity at Benzodiazepine receptor of rat forebrain by [3H]- flunitrazepam displacement.
Rattus norvegicus [2] = experiment: Antagonism of Diazepam anti-convulsive effects in rats treated with metrazole ip dose at 10 mg/kg, 0/6 rats affected; type: functional; details: route intraperitoneal
Rattus norvegicus [3] = experiment: Antagonism of diazepam-induced rotarod deficit on ip dose in rats; type: functional
Rattus norvegicus [4] = experiment: Antagonism of Diazepam anti-convulsive effects in rats treated with metrazole ip dose at 3mg/kg, 2/6 rats affected; type: functional
[5] = biological target: T1, GABA-A receptor; anion channel (Mus musculus) (UniProt Q8BHJ7+P26048+Q8QZW7+P50571+Q9R0Y8+P22723+A2AMW3+P62812+Q9JLF1+P26049+P22933+Q9D6F4+P63080+P27681+P16305); experiment: In vivo percentage inhibition of flunitrazepam binding to Benzodiazepine receptor in mouse fore brain at 30 mg/Kg.; type: organism-based
Rattus norvegicus [6] = experiment: Antagonism of Diazepam anti-convulsive effects in rats treated with metrazole ip dose at 1 mg/kg, 2/6 rats affected; type: functional; details: route intraperitoneal
Rattus norvegicus [7] = organism: Rattus norvegicus; experiment: Antagonism of diazepam-induced rotarod deficit after peroral dose in rats; type: functional; details: po
Rattus norvegicus [8] = experiment: Antagonism of Diazepam anti-convulsive effects in rats treated with metrazole ip dose at 30 mg/kg, 0/6 rats affected; type: functional; details: route intraperitoneal
Rattus norvegicus [9] = experiment: Antagonism of diazepam-induced discriminative stimuli in rats by ip dose; type: functional
Rattus norvegicus [10] = experiment: Antagonism of Diazepam anti-convulsive effects in rats treated with metrazole ip dose at 0.3mg/kg, 6/6 rats affected; type: functional
Rattus norvegicus [11] = organism: Rattus norvegicus; experiment: Antagonism of diazepam-induced discriminative stimuli in rats by peroral dose; type: functional; details: po
[12] = biological target: GABA-A receptor; anion channel; experiment: Displacement of [3H]- Diazepam from GABA-A Benzodiazepine receptor of rat forebrain
Rattus norvegicus [13] = experiment: Antagonism of Diazepam anti-convulsive effects in rats treated with metrazole ip dose at 1 mg/kg in rats, 1/6 rats affected; type: functional; details: route intraperitoneal
Rattus norvegicus [14] = experiment: Antagonism of Diazepam anti-convulsive effects in rats treated with metrazole ip dose at 0.3 mg/kg, 5/6 rats affected; type: functional; details: route intraperitoneal
[15] = biological target: GABA-A receptor; anion channel; experiment: Displacement of [3H]diazepam from GABA-A Benzodiazepine receptor of rat forebrain
[16] = biological target: GABA-A receptor; anion channel; experiment: Displacement of [3H]flunitrazepam from GABA-A Benzodiazepine receptor of rat forebrain
Rattus norvegicus [17] = organism: Rattus norvegicus; experiment: Antagonism of diazepam-induced rotarod deficit on peroral dose in rats; type: functional; details: po
Rattus norvegicus [18] = experiment: Antagonism of Diazepam anti-convulsive effects in rats treated with metrazole ip dose at 20 mg/kg, 0/6 rats affected; type: functional; details: route intraperitoneal
[19] = biological target: T1, GABA-A receptor; anion channel (Mus musculus); details: 30 mg/kg
Description: In vivo percentage inhibition of flunitrazepam binding to mouse fore brain at 30 mg/kg

Rattus norvegicus [20] = experiment: Antagonism of Diazepam anti-convulsive effects in rats treated with metrazole ip dose at 1 mg/kg, 5/6 rats affected; type: functional; details: route intraperitoneal
Rattus norvegicus [21] = experiment: Antagonism of Diazepam anti-convulsive effects in rats treated with metrazole ip dose at 3mg/kg, 1/6 rats affected; type: functional
Rattus norvegicus [22] = experiment: Antagonism of Diazepam anti-convulsive effects in rats treated with metrazole ip dose at 1 mg/kg, 3/6 rats affected; type: functional; details: route intraperitoneal

Oc1nc2ccc(Cl)cc2c2nc(C3CCCO3)nn12 (centres undefined)
IC50 [1]: > 100 nM

Oc1nc2ccc(Cl)cc2c2nc(-c3ccccc3F)nn12
Antagonist effect (Rattus norvegicus [2]): 0
ED50 (Rattus norvegicus [3]): 6.92 mg/kg
IC50 [1]: 0.4 nM
Antagonist effect (Rattus norvegicus [4]): 2
inhibition [5]: 76%
Antagonist effect (Rattus norvegicus [6]): 2
ED50 (Rattus norvegicus [7]): 5.5 mg/kg
Antagonist effect (Rattus norvegicus [8]): 0
ED50 (Rattus norvegicus [9]): 2.99 mg/kg
Antagonist effect (Rattus norvegicus [10]): 6
ED50 (Rattus norvegicus [11]): 6.51 mg/kg

Cn1c(=O)n2nc(-c3cccnc3)nc2c2ccccc21
IC50 [12]: > 10000 nM

CN1CCCC(c2nc3c4cc(Cl)ccc4nc(O)n3n2)C1 (centres undefined)
IC50 [1]: > 1000 nM

Oc1nc2ccccc2c2nc(-c3ccccc3F)nn12
IC50 [1]: 0.4 nM
inhibition [5]: 41%

Oc1nc2ccc(Cl)cc2c2nc(-c3cccc(F)c3)nn12
Antagonist effect (Rattus norvegicus [2]): 0
Antagonist effect (Rattus norvegicus [13]): 1
ED50 (Rattus norvegicus [3]): > 30 mg/kg
IC50 [1]: 4 nM
Antagonist effect (Rattus norvegicus [4]): 2
inhibition [5]: 31%
Antagonist effect (Rattus norvegicus [14]): 5
Antagonist effect (Rattus norvegicus [8]): 0

Cn1c(=O)n2nc(-c3ccccc3)nc2c2ccccc21
inhibition [5]: 55%
IC50 [12]: 350 nM

Oc1nc2ccccc2c2nc(-c3ccncc3)nn12
inhibition [5]: 19%

CCOc1nc2c3ccccc3nc(O)n2n1
IC50 [1]: 2.5 nM
inhibition [5]: 0%

Oc1nc2ccccc2c2nc(C(F)(F)F)nn12
IC50 [12]: > 1000 nM

Oc1nc2ccc(Cl)cc2c2nc(-c3cccs3)nn12
IC50 [1]: 0.6 nM
inhibition [5]: 21%

CN1C(=O)CN=C(c2ccccc2F)c2cc([N+](=O)[O-])ccc21 [FLUNITRAZEPAM]
IC50 [15]: 1.5 nM

Oc1nc2ccc(Cl)cc2c2nc(-c3cccnc3)nn12
inhibition [5]: 24%
IC50 [12]: 10 nM

COc1cc(-c2nc3c4cc(Cl)ccc4nc(O)n3n2)cc(OC)c1OC
IC50 [1]: > 1000 nM

Oc1nc2ccccc2c2nc(-c3cccnc3)nn12
inhibition [5]: 48%
IC50 [12]: 130 nM

O=c1[nH]c2ccccc2c2nc(-c3ccncc3)nn12
IC50 [12]: 200 nM

Cn1c(=O)n2nc(C(F)(F)F)nc2c2ccccc21
IC50 [12]: > 1000 nM

Oc1nc2ccc(Cl)cc2c2nc(-c3ccc(F)cc3)nn12
IC50 [1]: 20 nM
inhibition [5]: 52%

Oc1nc2ccccc2c2nc(-c3ccc(Cl)cc3)nn12
IC50 [12]: > 10000 nM

O=C1C2C=Nc3ccccc3C2=NN1c1ccccc1 (centres undefined) [CGS-8216]
Antagonist effect (Rattus norvegicus [2]): 0
IC50 [16]: 4.4 nM
ED50 (Rattus norvegicus [17]): 0.6 mg/kg
IC50 [15]: 0.3 nM
ED50 (Rattus norvegicus [11]): 1.61 mg/kg
Antagonist effect (Rattus norvegicus [18]): 0
inhibition [19]: 90%
Antagonist effect (Rattus norvegicus [20]): 5
Antagonist effect (Rattus norvegicus [21]): 1

Oc1nc2ccccc2c2nc(-c3ccccc3)nn12
inhibition [5]: 55%
IC50 [12]: 4 nM

Oc1nc2ccc(Cl)cc2c2nc(-c3ccccn3)nn12
IC50 [12]: 100 nM

Oc1nc2ccc(Cl)cc2c2nc(Cc3ccccc3)nn12
IC50 [1]: 100 nM
inhibition [5]: 0%

Oc1nc2ccc(Cl)cc2c2nc(-c3ccoc3)nn12
IC50 [1]: 3.5 nM

Oc1nc2ccc(Cl)cc2c2nc(-c3ccc(C(F)(F)F)cc3)nn12
IC50 [1]: > 1000 nM

Oc1ccc(-c2nc3c4cc(Cl)ccc4nc(O)n3n2)cc1
IC50 [1]: 0.3 nM
inhibition [5]: 0%

COc1ccc(-c2nc3c4cc(Cl)ccc4nc(O)n3n2)cc1
IC50 [1]: 3 nM

Oc1nc2c(Cl)cc(Cl)cc2c2nc(-c3ccccc3)nn12
inhibition [5]: 6%
IC50 [12]: 200 nM

Oc1nc2ccc(Cl)cc2c2nc(-c3ccco3)nn12
IC50 [1]: 0.6 nM
inhibition [5]: 15%

OCc1nc2c3ccccc3nc(O)n2n1
IC50 [1]: > 100 nM
inhibition [5]: 0%

Cc1ccc(-c2nc3c4cc(Cl)ccc4nc(O)n3n2)cc1
IC50 [1]: 200 nM
inhibition [5]: 63%

Oc1nc2ccc(Cl)cc2c2nc(-c3ccccc3)nn12
Antagonist effect (Rattus norvegicus [2]): 0
ED50 (Rattus norvegicus [3]): 26 mg/kg
Antagonist effect (Rattus norvegicus [22]): 3
IC50 [1]: 8 nM
Antagonist effect (Rattus norvegicus [4]): 2
inhibition [5]: 72%
ED50 (Rattus norvegicus [7]): 2.8 mg/kg
Antagonist effect (Rattus norvegicus [8]): 0
Antagonist effect (Rattus norvegicus [10]): 6

From ChEMBL document CHEMBL1125732, “Synthesis and benzodiazepine binding activity of a series of novel [1,2,4]triazolo[1,5-c]quinazolin-5(6H)-ones” (J Med Chem, 1991)
